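All cell lines were grown in 96-well plates and treated with compound for 48 hours. TGI marks complete inhibition of growth.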
Columns and labels:
Assay in all cases: NCI tumour cell line growth inhibition, 48 h
[1] = system: COLO 205 colon
[2] = system: MALME-3M melanoma
[3] = system: NCI-H23 lung
[4] = system: OVCAR-5 ovarian
[5] = system: SK-MEL-28 melanoma
[6] = system: SN12C renal
[7] = system: CAKI-1 renal
[8] = system: HCC-2998 colon
[9] = system: NCI-H460 lung
[10] = system: SF-268 CNS
[11] = system: OVCAR-3 ovarian
[12] = system: M19-MEL melanoma
[13] = system: XF 498 CNS
[14] = system: UACC-257 melanoma
[15] = system: M14 melanoma
[16] = system: OVCAR-8 ovarian
[17] = system: 786-0 renal
[18] = system: SK-OV-3 ovarian
[19] = system: LOX IMVI melanoma
[20] = system: HOP-62 NSCLC
[21] = system: U251 CNS
[22] = system: SF-295 CNS
[23] = system: SF-539 CNS
[24] = system: SK-MEL-2 melanoma
[25] = system: SK-MEL-5 melanoma
[26] = system: SNB-75 CNS
[27] = system: KM20L2 colon
[28] = system: TK-10 renal
[29] = system: HT29 colon
[30] = system: SW-620 colon
[31] = system: OVCAR-4 ovarian
[32] = system: RXF-631 renal
[33] = system: A549 NSCLC
[34] = system: HCT-116 colon
[35] = system: DLD-1 colon
[36] = system: ACHN renal
[37] = system: IGROV1 ovarian
[38] = system: UACC-62 melanoma
[39] = system: HOP-18 NSCLC
[40] = system: K-562 leukemia
[41] = system: RPMI-8226 leukemia
[42] = system: A498 renal
[43] = system: SNB-19 CNS
[44] = system: EKVX NSCLC
[45] = system: HOP-92 NSCLC
[46] = system: DMS 273 small cell lung
[47] = system: CCRF-CEM leukemia
[48] = system: SNB-78 CNS
[49] = system: UO-31 renal
[50] = system: KM12 colon
[51] = system: HCT-15 colon
[52] = system: NCI-H226 lung

Measured: TGI

CCOCN1COCN(C)C1=O
> 100 µM: all assays above

Reference: PubChem BioAssay (NCI)
